According to patent publication US8791131B2, “Imidazo[1,5]naphthyridine compounds, their pharmaceutical use and compositions” (Pfizer Inc., priority 2008, dated 2014):
Where two headings read alike, the source gives them in different places.

Legend:
[1] = test system: PI3-K (phosphorylation of AKT at serine 473) in BT20 cells; experiment: PI3-Kα cellular assay (phospho-AKT Ser473 ELISA in BT20 cells); conditions: Homo sapiens, BT-20, 1 h;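 note: lysates read by ELISA with TMB colour at 450 nm, cells given 0.5% DMSO vehicle serve as positive control and cell-free wells as negative control, duplicate wells per concentration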
PI3-Kα = PI3-Kα (Mus musculus (Mouse), UniProt P42337); experiment: PI3-Kα biochemical assay (in vitro kinase assay, fluorescence polarization); conditions: for PI3Ka Ki: Ki calculated from IC50, [ATP]=30 uM, Km=25 uM;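 for all read-outs here: Insect-cell-expressed mouse p110/p85 complex converting PI(4,5)P2, product PI(3,4,5)P3 detected by displacing TAMRA-tagged PI(3,4,5)P3 from Grip1 PH domain, lower polarization means more product, room temperature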
mTOR = mTOR (Homo sapiens (Human), UniProt P42345)
[2] = read-out: S473 pAKT 0.5% FBS IC50 (μM)
[3] = read-out: S473 pAKT 10% FBS IC50 (μM)

PI3-Kα, sequence (P42337 whole entry, the tested form may be a part): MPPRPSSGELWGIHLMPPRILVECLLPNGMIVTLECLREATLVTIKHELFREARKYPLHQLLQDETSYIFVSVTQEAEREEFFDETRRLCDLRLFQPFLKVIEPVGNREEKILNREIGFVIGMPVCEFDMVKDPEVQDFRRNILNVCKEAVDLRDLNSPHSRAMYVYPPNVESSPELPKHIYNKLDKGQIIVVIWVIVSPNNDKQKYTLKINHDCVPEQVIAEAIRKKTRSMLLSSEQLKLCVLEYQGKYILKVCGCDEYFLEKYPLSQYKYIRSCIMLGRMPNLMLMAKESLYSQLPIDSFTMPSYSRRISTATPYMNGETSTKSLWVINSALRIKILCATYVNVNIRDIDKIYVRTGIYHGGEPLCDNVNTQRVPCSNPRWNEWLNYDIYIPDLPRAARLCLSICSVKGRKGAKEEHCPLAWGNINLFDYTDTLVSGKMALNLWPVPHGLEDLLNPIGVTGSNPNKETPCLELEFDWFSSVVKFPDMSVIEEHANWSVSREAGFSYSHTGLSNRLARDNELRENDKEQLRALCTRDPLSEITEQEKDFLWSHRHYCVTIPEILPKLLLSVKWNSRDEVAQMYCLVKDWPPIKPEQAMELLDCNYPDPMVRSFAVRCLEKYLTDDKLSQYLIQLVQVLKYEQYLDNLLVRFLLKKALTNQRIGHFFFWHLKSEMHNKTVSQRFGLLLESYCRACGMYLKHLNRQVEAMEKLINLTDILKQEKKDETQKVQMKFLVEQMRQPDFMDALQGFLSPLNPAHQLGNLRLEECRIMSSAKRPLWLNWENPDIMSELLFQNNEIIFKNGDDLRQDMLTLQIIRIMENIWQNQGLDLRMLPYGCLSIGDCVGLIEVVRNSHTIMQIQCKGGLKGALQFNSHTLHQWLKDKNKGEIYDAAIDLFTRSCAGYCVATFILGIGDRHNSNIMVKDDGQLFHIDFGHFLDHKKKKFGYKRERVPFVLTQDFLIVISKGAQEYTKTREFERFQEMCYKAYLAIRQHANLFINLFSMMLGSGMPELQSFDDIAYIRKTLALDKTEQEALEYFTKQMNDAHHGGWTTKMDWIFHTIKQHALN
PI3-Kα, sequence (P26450 whole entry partner, the tested form may be a part): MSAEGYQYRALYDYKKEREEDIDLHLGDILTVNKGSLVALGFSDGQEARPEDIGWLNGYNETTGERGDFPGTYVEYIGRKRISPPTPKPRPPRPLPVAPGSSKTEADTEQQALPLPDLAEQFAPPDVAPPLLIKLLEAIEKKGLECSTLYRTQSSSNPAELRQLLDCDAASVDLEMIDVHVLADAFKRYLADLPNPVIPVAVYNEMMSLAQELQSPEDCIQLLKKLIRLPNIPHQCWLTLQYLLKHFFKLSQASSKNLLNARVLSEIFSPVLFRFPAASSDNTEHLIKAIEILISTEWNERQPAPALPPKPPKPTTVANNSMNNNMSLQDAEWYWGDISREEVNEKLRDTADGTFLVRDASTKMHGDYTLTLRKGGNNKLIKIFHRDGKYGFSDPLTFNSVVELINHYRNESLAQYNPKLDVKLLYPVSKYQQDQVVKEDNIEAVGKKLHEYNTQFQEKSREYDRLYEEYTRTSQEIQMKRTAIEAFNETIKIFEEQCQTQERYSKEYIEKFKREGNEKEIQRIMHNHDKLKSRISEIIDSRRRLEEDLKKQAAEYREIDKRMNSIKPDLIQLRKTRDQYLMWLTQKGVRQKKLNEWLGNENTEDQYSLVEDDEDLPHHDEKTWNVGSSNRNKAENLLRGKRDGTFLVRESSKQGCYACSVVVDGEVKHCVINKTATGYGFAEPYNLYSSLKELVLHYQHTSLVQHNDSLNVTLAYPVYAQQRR
mTOR, sequence (P42345 2156-2469): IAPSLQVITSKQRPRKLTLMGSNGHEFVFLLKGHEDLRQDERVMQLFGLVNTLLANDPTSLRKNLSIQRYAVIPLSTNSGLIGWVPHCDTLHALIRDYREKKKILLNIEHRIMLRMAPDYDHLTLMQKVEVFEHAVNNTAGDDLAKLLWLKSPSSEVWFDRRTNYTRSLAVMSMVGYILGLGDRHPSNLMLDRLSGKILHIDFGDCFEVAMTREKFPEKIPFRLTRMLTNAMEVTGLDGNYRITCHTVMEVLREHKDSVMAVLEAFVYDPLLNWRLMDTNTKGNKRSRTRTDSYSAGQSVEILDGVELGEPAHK

PI3Ka Ki (PI3-Kα)	IC50 [1, 3]	SMILES	also measured
0.00609 µM		COc1ncc(-c2ccc3ncc4c(c3n2)n(-c2ccc(C(C)(C)C#N)cc2)c(=O)n4C)cn1 [Compound 112, 2-(4-(8-(2-methoxypyrimidin-5-yl)-3-methyl-2-oxo-2,3-dihydroimidazo[4,5-c][1,5]naphthyridin-1-yl)phenyl)-2-methylpropanenitrile]	IC50 [1, 2]: 0.0272 µM
		CCNC(=O)N1CCC(n2c(=O)n(C)c3cnc4ccc(-c5cnc6ccccc6c5)nc4c32)CC1 [Compound 124, N-ethyl-4-(3-methyl-2-oxo-8-quinolin-3-yl-2,3-dihydro-1H-imidazo[4,5-c][1,5]naphthyridin-1-yl)piperidine-1-carboxamide]	IC50 [1, 2]: 0.017 µM
	0.0456 µM	COc1ncc(-c2ccc3ncc4c(c3n2)n([C@H]2CC[C@H](C(N)=O)CC2)c(=O)n4C)cn1 [Compound 157, trans-4-[8-(2-methoxypyrimidin-5-yl)-3-methyl-2-oxo-2,3-dihydro-1H-imidazo[4,5-c][1,5]naphthyridin-1-yl]cyclohexanecarboxamide]	
	0.224 µM	Cn1cc(-c2ccc3ncc4c(c3n2)n([C@H]2CC[C@H](C(N)=O)CC2)c(=O)n4C)cn1 [Compound 158, trans-4-[3-methyl-8-(1-methyl-1H-pyrazol-4-yl)-2-oxo-2,3-dihydro-1H-imidazo[4,5-c][1,5]naphthyridin-1-yl]cyclohexanecarboxamide]	
	0.0123 µM	COCC(=O)N1CCC(n2c(=O)n(C)c3cnc4ccc(-c5cnc(OC)nc5)nc4c32)CC1 [Compound 161, 1-[1-(methoxyacetyl)piperidin-4-yl]-8-(2-methoxypyrimidin-5-yl)-3-methyl-1,3-dihydro-2H-imidazo[4,5-c][1,5]naphthyridin-2-one]	
0.0233 µM	0.264 µM	Cn1c(=O)n([C@H]2CC[C@H](O)CC2)c2c3nc(-c4cc[nH]n4)ccc3ncc21 [Compound 174, 1-(trans-4-hydroxycyclohexyl)-3-methyl-8-(1H-pyrazol-3-yl)-1,3-dihydro-2H-imidazo[4,5-c][1,5]naphthyridin-2-one]	
0.0287 µM	0.175 µM	COc1ncc(-c2ccc3ncc4c(c3n2)n(C2CCN(C(=O)CN(C)C)CC2)c(=O)n4C)cn1 [Compound 183, 1-[1-(N,N-dimethylglycyl)piperidin-4-yl]-8-(2-methoxypyrimidin-5-yl)-3-methyl-1,3-dihydro-2H-imidazo[4,5-c][1,5]naphthyridin-2-one]	
0.0283 µM	0.309 µM	Cn1c(=O)n(C2CCOCC2)c2c3nc(-c4ccn[nH]4)ccc3ncc21 [Compound 202, 3-methyl-8-(1H-pyrazol-5-yl)-1-(tetrahydro-2H-pyran-4-yl)-1,3-dihydro-2H-imidazo[4,5-c][1,5]naphthyridin-2-one]	
0.000264 µM	0.00669 µM	CN(C)c1ccc(-c2ccc3ncc4c(c3n2)n(C2CCN(C(=O)C(C)(C)O)CC2)c(=O)n4C)cn1 [Compound 209, 8-[6-(dimethylamino)pyridin-3-yl]-1-[1-(2-hydroxy-2-methylpropanoyl)piperidin-4-yl]-3-methyl-1,3-dihydro-2H-imidazo[4,5-c][1,5]naphthyridin-2-one]	
	0.00694 µM	Cn1c(=O)n(C2CCOCC2)c2c3nc(-c4cnc(N)nc4)ccc3ncc21 [Compound 210, 8-(2-aminopyrimidin-5-yl)-3-methyl-1-(tetrahydro-2H-pyran-4-yl)-1,3-dihydro-2H-imidazo[4,5-c][1,5]naphthyridin-2-one]	
0.0454 µM	0.428 µM	Cc1ccc(-c2ccc3ncc4c(c3n2)n(C2CCOCC2)c(=O)n4CCO)cn1 [Compound 218, 3-(2-hydroxyethyl)-8-(6-methylpyridin-3-yl)-1-(tetrahydro-2H-pyran-4-yl)-1,3-dihydro-2H-imidazo[4,5-c][1,5]naphthyridin-2-one]	
0.0573 µM		C[C@H](CO)n1c(=O)n(C)c2cnc3ccc(-c4cnc5ccccc5c4)nc3c21 [Compound 234, 1-[(1R)-2-hydroxy-1-methylethyl]-3-methyl-8-quinolin-3-yl-1,3-dihydro-2H-imidazo[4,5-c][1,5]naphthyridin-2-one]	
	0.00961 µM	Cn1c(=O)n([C@H]2CC[C@H](O)CC2)c2c3nc(-c4cccc5[nH]ccc45)ccc3ncc21 [Compound 236, 1-(trans-4-hydroxycyclohexyl)-8-(1H-indo1-4-yl)-3-methyl-1,3-dihydro-2H-imidazo[4,5-c][1,5]naphthyridin-2-one]	
0.00194 µM	0.0815 µM	CNC(=O)Nc1ccc(-c2ccc3ncc4c(c3n2)n(C2CCN(C(=O)[C@H](C)O)CC2)c(=O)n4C)cc1 [Compound 244, 1-[4-(1-{1-[(2S)-2-hydroxypropanoyl]piperidin-4-yl}-3-methyl-2-oxo-2,3-dihydro-1H-imidazo[4,5-c][1,5]naphthyridin-8-yl)phenyl]-3-methylurea]	
0.0176 µM		CC(=O)N1CCC(n2c(=O)n(C)c3cnc4ccc(-c5cccc(-n6cccn6)c5)nc4c32)CC1 [Compound 247, 1-(1-acetylpiperidin-4-yl)-3-methyl-8-[3-(1H-pyrazol-1-yl)phenyl]-1,3-dihydro-2H-imidazo[4,5-c][1,5]naphthyridin-2-one]	
0.000366 µM	0.0133 µM	Cn1c(=O)n([C@H]2CC[C@H](O)CC2)c2c3nc(-c4cnc5[nH]ncc5c4)ccc3ncc21 [Compound 268, 1-(trans-4-hydroxycyclohexyl)-3-methyl-8-(1H-pyrazolo[3,4-b]pyridin-5-yl)-1,3-dihydro-2H-imidazo[4,5-c][1,5]naphthyridin-2-one]	
0.00184 µM	0.014 µM	COc1ccc(-c2ccc3ncc4c(c3n2)n(C2CCN(C(=O)[C@H](C)O)CC2)c(=O)n4C)cc1 [Compound 272, 1-{1-[(2S)-2-hydroxypropanoyl]piperidin-4-yl}-8-(4-methoxyphenyl)-3-methyl-1,3-dihydro-2H-imidazo[4,5-c][1,5]naphthyridin-2-one]	
0.118 µM		COc1ccccc1-c1ccc2ncc3c(c2n1)n(C1CCN(C(=O)CO)CC1)c(=O)n3C [Compound 279, 1-(1-glycoloylpiperidin-4-yl)-8-(2-methoxyphenyl)-3-methyl-1,3-dihydro 2H-imidazo[4,5-c][1,5]naphthyridin-2-one]	
		COc1ccccc1-c1ccc2ncc3c(c2n1)n(C1CCN(C(C)=O)CC1)c(=O)n3C [Compound 280, 1-(1-acetylpiperidin-4-yl)-8-(2-methoxyphenyl)-3-methyl-1,3-dihydro-2H-imidazo[4,5-c][1,5]naphthyridin-2-one]	Ki (PI3-Kα; read-out: PI3Ka Ki): 292 nM

SMILES	PI3Ka Ki (PI3-Kα)	IC50 [1, 3]	also measured
Cn1cc(-c2ccc3ncc4c(c3n2)n(C2CCN(CC(F)(F)F)CC2)c(=O)n4C)cn1 [Compound 151, 3-methyl-8-(1-methyl-1H-pyrazol-4-yl)-1-[1-(2,2,2-trifluoroethyl)piperidin-4-yl]-1,3-dihydro-2H-imidazo[4,5-c][1,5]naphthyridin-2-one]		0.195 µM	
COc1ncc(-c2ccc3ncc4c(c3n2)n([C@H]2CC[C@H](O)CC2)c(=O)n4C)cn1 [Compound 169, 1-(trans-4-hydroxycyclohexyl)-8-(2-methoxypyrimidin-5-yl)-3-methyl-1,3-dihydro-2H-imidazo[4,5-c][1,5]naphthyridin-2-one]		1 µM	Ki (mTOR): 6.39 nM
CN1CCC(n2c(=O)n(C)c3cnc4ccc(-c5ccc(N(C)C)nc5)nc4c32)CC1 [Compound 207, 8-[6-(dimethylamino)pyridin-3-yl]-3-methyl-1-(1-methylpiperidin-4-yl)-1,3-dihydro-2H-imidazo[4,5-c][1,5]naphthyridin-2-one]		0.0194 µM	Ki (mTOR): 9.62 nM
COc1ccc(-c2ccc3ncc4c(c3n2)n(C2CCOCC2)c(=O)n4CCO)cn1 [Compound 219, 3-(2-hydroxyethyl)-8-(6-methoxypyridin-3-yl)-1-(tetrahydro-2H-pyran-4-yl)-1,3-dihydro-2H-imidazo[4,5-c][1,5]naphthyridin-2-one]	0.0757 µM		Ki (mTOR): 47.2 nM
CN(C)c1ccc(-c2ccc3ncc4c(c3n2)n(C2CCOCC2)c(=O)n4CCO)cn1 [Compound 222, 8-[6-(dimethylamino)pyridin-3-yl]-3-(2-hydroxyethyl)-1-(tetrahydro-2H-pyran-4-yl)-1,3-dihydro-2H-imidazo[4,5-c][1,5]naphthyridin-2-one]	0.319 µM		Ki (mTOR): 50.1 nM
C[C@H](CO)n1c(=O)n(C)c2cnc3ccc(-c4cnn(C)c4)nc3c21 [Compound 232, 1-[(1R)-2-hydroxy-1-methylethyl]-3-methyl-8-(1-methyl-1H-pyrazol-4-yl)-1,3-dihydro-2H-imidazo[4,5-c][1,5]naphthyridin-2-one]	0.143 µM		Ki (mTOR): 521 nM
CNC(=O)Nc1ccc(-c2ccc3ncc4c(c3n2)n(C2CCN(C(=O)CO)CC2)c(=O)n4C)cc1 [Compound 245, 1-{4-[1-(1-glycoloylpiperidin-4-yl)-3-methyl-2-oxo-2,3-dihydro-1H-imidazo[4,5-c][1,5]naphthyridin-8-yl]phenyl}-3-methylurea]	0.00219 µM		Ki (mTOR): 2.03 nM
Cn1c(=O)n(C2CCN(C(=O)CO)CC2)c2c3nc(-c4ccnc5[nH]ncc45)ccc3ncc21 [Compound 252, 1-(1-glycoloylpiperidin-4-yl)-3-methyl-8-(1H-pyrazolo[3,4-b]pyridin-4-yl)-1,3-dihydro-2H-imidazo[4,5-c][1,5]naphthyridin-2-one]	0.000832 µM		Ki (mTOR): 1.77 nM
COc1ccc(-c2ccc3ncc4c(c3n2)n(CCN2CCOCC2)c(=O)n4C)cn1 [Compound 269, 8-(6-methoxypyridin-3-yl)-3-methyl-1-(2-morpholin-4-ylethyl)-1,3-dihydro-2H-imidazo[4,5-c][1,5]naphthyridin-2-one]	0.0122 µM		Ki (mTOR): 27.8 nM
